Results reported in patent US20050085413A1, “Dimeric pharmaceutical compounds and their use” (priority 2001, published 2005).

Tests used:
Assay in all cases: Kirby-Bauer disk test, zones of inhibition
Format in all cases: cell-based
[1] = test system: Enterococcus faecalis ATCC 29212; details: 30 μg/disk; for zone of inhibition at 30 µg/disc: Enterococcus faecalis, ATCC29212, read-out: diameter of zone of inhibition, Enterococcus faecalis ATCC 29212
Protocol: (§1) Antibiotic activities were determined using a standard Kirby-Bauer* test and are reported as diameters (in mm) of zones of inhibition for test strains. All compounds were spotted at 30 μg/disk.

[2] = test system: Escherichia coli ATTCC 25922; details: 30 μg/disk; for zone of inhibition at 30 µg/disc: Escherichia coli, ATTCC25922, read-out: diameter of zone of inhibition, Escherichia coli ATTCC 25922
Protocol: as §1

[3] = test system: Pseudomonas aeuruginosa ATCC 27853; details: 30 μg/disk; for zone of inhibition at 30 µg/disc: Pseudomonas, ATCC27853, read-out: diameter of zone of inhibition, Pseudomonas aeuruginosa ATCC 27853
Protocol: as §1

[4] = test system: Staphylococcus aureus ATCC 29213; details: 30 μg/disk; for zone of inhibition at 30 µg/disc: Staphylococcus aureus, ATCC29213, read-out: diameter of zone of inhibition, Staphylococcus aureus ATCC 29213
Protocol: as §1

SMILES	zone of inhibition at 30 µg/disc [1] [mm]	zone of inhibition at 30 µg/disc [2] [mm]	zone of inhibition at 30 µg/disc [3] [mm]	diameter of zone of inhibition, Enterococcus faecalis ATCC 29212 [1] [mm]	diameter of zone of inhibition, Escherichia coli ATTCC 25922 [2] [mm]	diameter of zone of inhibition, Pseudomonas aeuruginosa ATCC 27853 [3] [mm]	diameter of zone of inhibition, Staphylococcus aureus ATCC 29213 [4] [mm]	zone of inhibition at 30 µg/disc [4] [mm]
NCC1OC(OC2C(N)CC(N)C(OC3OC(CN4CCN(C(=O)Nc5ccc(Cc6ccc(NC(=O)N7CCN(CC8OC(OC9C(N)CC(N)C(OC%10OC(CN)C(O)CC%10N)C9O)C(O)C(N)C8O)CC7)cc6)cc5)CC4)C(O)C(N)C3O)C2O)C(N)CC1O (stereo not drawn) [Compound 15]	6.2	7.7	9					
NC[C@H]1O[C@H](O[C@H]2[C@H](O)[C@@H](O[C@H]3O[C@H](CO)[C@@H](O)[C@H](N)[C@H]3O)[C@H](N)C[C@@H]2N)[C@H](O)[C@@H](O)[C@@H]1O [Kanamycin A, reference compound]				6.7	18.2	6.2	19.1	
NCC1OC(OC2C(N)CC(N)C(OC3OC(CN)C(O)C(N)C3O)C2O)C(N)CC1O (stereo not drawn) [Compound 2]	6.3	6.3	12.8					18.2
NCC1OC(OC2C(N)CC(N)C(OC3OC(CN4CCN(C(=O)Nc5ccc(NC(=O)N6CCN(CC7OC(OC8C(N)CC(N)C(OC9OC(CN)C(O)CC9N)C8O)C(O)C(N)C7O)CC6)cc5)CC4)C(O)C(N)C3O)C2O)C(N)CC1O (stereo not drawn) [Compound 19]	6.2	12.1	12.8					
NCC1OC(OC2C(N)CC(N)C(OC3OC(COC(=O)Nc4ccc(Cc5ccc(NC(=O)OCC6OC(OC7C(N)CC(N)C(OC8OC(CN)C(O)CC8N)C7O)C(O)C(N)C6O)cc5)cc4)C(O)C(N)C3O)C2O)C(N)CC1O (stereo not drawn) [Compound 4]	6	7.9	9.2					9.3
NCC1OC(OC2C(N)CC(N)C(OC3OC(CN4CCN(Cc5cccc(CN6CCN(CC7OC(OC8C(N)CC(N)C(OC9OC(CN)C(O)CC9N)C8O)C(O)C(N)C7O)CC6)c5)CC4)C(O)C(N)C3O)C2O)C(N)CC1O (stereo not drawn) [Compound 17]	6.2	6.5	8.5					
NCC[C@H](O)C(=O)N[C@@H]1C[C@H](N)[C@@H](O[C@H]2O[C@H](CN)[C@@H](O)[C@H](O)[C@H]2O)[C@H](O)[C@H]1O[C@H]1O[C@H](CO)[C@@H](O)[C@H](N)[C@H]1O [Amikacin, reference compound]	6.7	18.5	18.4					18.2
NCC1OC(OC2C(N)CC(N)C(OC3OC(CNCCCCNC(=O)Nc4ccc(Cc5ccc(NC(=O)NCCCCNCC6OC(OC7C(N)CC(N)C(OC8OC(CN)C(O)CC8N)C7O)C(O)C(N)C6O)cc5)cc4)C(O)C(N)C3O)C2O)C(N)CC1O (stereo not drawn) [Compound 22]			6					
NCC1OC(OC2C(N)CC(N)C(OC3OC(CN4CCN(CCCCCCCCCCCCN5CCN(CC6OC(OC7C(N)CC(N)C(OC8OC(CN)C(O)CC8N)C7O)C(O)C(N)C6O)CC5)CC4)C(O)C(N)C3O)C2O)C(N)CC1O (stereo not drawn) [Compound 20]	6.2	7.8	7.5					
NCC1OC(OC2C(N)CC(N)C(OC3OC(CN4CCN(C(=O)CCCCCCCCCCCCCC(=O)N5CCCN(CC6OC(OC7C(N)CC(N)C(OC8OC(CN)C(O)CC8N)C7O)C(O)C(N)C6O)C5)CC4)C(O)C(N)C3O)C2O)C(N)CC1O (stereo not drawn) [Compound 7]	6.2	6.5	8.9					
NCC1OC(OC2C(N)CC(N)C(OC3OC(CN4CCN(C(=O)CCC(=O)N5CCN(CC6OC(OC7C(N)CC(N)C(OC8OC(CN)C(O)CC8N)C7O)C(O)C(N)C6O)CC5)CC4)C(O)C(N)C3O)C2O)C(N)CC1O (stereo not drawn) [Compound 25]			6					
